Measured values from US10011615B2, “Heterobicyclo-substituted [1,2,4]triazolo[1,5-c]quinazolin-5-amine compounds with A2A anatagonist properties” (Merck Sharp & Dohme Corp., priority 2012, dated 2018).

Target: T1, human A2a receptor (Homo sapiens, UniProt P29274)
T1 construct: purchased Perkin-Elmer RBHA2AM400UA; host or cells: HEK293 cell membranes
Test: A2a receptor competition binding assay using Scintillation Proximity technology
Settings: membranes from HEK293 cells expressing human A2a receptor; 0.5 nM tritiated radioligand; SPA beads; 1 h room temperature
Description: Binding affinities of compounds of the invention for the human A2a receptor were determined in a competition binding assay using Scintillation Proximity technology. Thus, 0.3 μg of membranes from HEK293 cells expressing the human A2a receptor were incubated with a compound of the invention at concentrations ranging from 3000 nM to 0.15 nM in a reaction mixture containing also 0.5 nM of a tritiated form of 5-amino-7-[2-phenethyl]-2-(furan-2-yl)-7H-pyrazolo[4,3-e][1,2,4]triazolo[1,5-c]pyrimidine (the tritiated compound) and 100 μg of wheat germ agglutin-coated yttrium silicate SPA beads for one hour at room temperature with agitation. The beads were then allowed to settle to the bottom of the wells for 1 hr, after which the membrane-associated radioactivity was determined by scintillation counting in a TopCount microplate reader. Ki values were determined using the Cheng-Prusoff equation.
Summary of Materials and Methods Used in A2a Activity Determination:
HEK293 cells expressing the human, rat, dog or monkey adenosine 2a receptor (Purchased from Perkin-Elmer # RBHA2AM400UA).
The Tritiated compound was prepared in-house by MRL Radiochemistry according to published methods.
Wheat germ agglutinin-coated yttrium silicate SPA beads (GE Healthcare#RPNQ0023). Dilute to 25 mg/ml in assay buffer.
Assay Buffer was prepared in house: Dulbecco's calcium and magnesium free phosphate buffered saline+10 mM MgCl2
Adenosine deaminase from calf intestine, 10 mg/2 ml (Roche) 10 102 105 001).
A2a antagonist standard (9-chloro-1-(2-furanyl)-[1,2,4]triazolo1,5-c]quinazolin-5-amine from Tocris Bioscience)
Make eight 1:3 serial dilutions in 100% DMSO from a 3 mM compound stock
Transfer 50 nl of compound into a 384-well OptiPlate (Perkin Elmer).
Typically, final concentrations of compound used in the assay ranged from 3000 nM to 0.152 nM.
Dilute a solution of the Tritiated compound to 1.25 nM in assay buffer. This is a 2.5× solution. The final concentration in the assay is 0.5 nM. Calculate the concentration by counting two 5 μl aliquots.
Use 0.25 ug of membrane/well. Dilute membranes to 9.7 μg/ml in assay buffer. Treat with 20 ug/ml adenosine deaminase (ADA) for 15 minutes at room temperature to degrade endogenous adenosine.
Use 100 μg/well wheat germ agglutinin-coated yttrium silicate SPA beads.
Mix ADA-treated membranes and SPA beads together for 30 min prior to assay.
To the Perkin-Elmer Optiplate-384 containing the compound titration add 20 μl of 2.5× solution of the Tritiated compound and 30 μl of the membrane-bead mixture. Incubate for one hour at room temperature with agitation.
Include total binding (assay buffer+1% DMSO) and non-specific binding (CGS15943, 1 μM) wells.
Allow the beads to settle for one hour.
A curve fitting program (i.e., Prism, Activity Base, Chemcart) is used to determine the EC50. The Ki value is calculated using the Cheng-Prusoff equation: K i=EC50/(1+(radioligand concentration/Kd)).

T1 sequence (P29274 whole entry): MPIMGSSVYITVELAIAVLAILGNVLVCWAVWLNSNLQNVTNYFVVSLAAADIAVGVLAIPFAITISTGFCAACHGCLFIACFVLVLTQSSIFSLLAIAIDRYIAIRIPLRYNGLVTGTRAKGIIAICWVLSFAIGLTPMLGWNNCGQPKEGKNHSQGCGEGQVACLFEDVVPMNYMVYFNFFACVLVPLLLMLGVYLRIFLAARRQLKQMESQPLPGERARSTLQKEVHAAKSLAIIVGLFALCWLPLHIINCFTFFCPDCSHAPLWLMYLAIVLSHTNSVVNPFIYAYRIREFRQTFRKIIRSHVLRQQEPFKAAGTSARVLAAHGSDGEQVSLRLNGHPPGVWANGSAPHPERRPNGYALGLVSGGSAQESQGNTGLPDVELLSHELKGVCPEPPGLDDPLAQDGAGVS

In order of falling EC50:
1. N#Cc1cccc2c1nc(N)n1nc(CN3Cc4cccnc4C3)nc21 [Ex-197]  612 nM
2. COCc1cccc2c1nc(N)n1nc(CN3CCc4cccnc4C3)nc21 [Ex-199]  199 nM
3. COc1cccc2c1nc(N)n1nc(CN3CCn4c(nnc4OC)C3)nc21 [Ex-144, 7-methoxy-2-((3-methoxy-5,6-dihydro[1,2,4]triazolo[4,3-a]pyrazin-7(8H)-yl)methyl)[1,2,4]triazolo[1,5-c]quinazolin-5-amine]  149 nM
4. COc1cccc2c1nc(N)n1nc(CN3CCn4cnnc4C3)nc21 [Ex-141, 2-((5-dihydro-[1,2,4]triazolo[4,3-a]pyrazin-7(8H)-yl)methyl)-7-methoxy-[1,2,4]triazolo[1,5-c]quinazolin-5-amine]  149 nM
5. Nc1nc2cc(F)ccc2c2nc(CCN3Cc4cccc(F)c4C3)nn12 [Ex-96]  56.2 nM
6. COc1cccc2c1nc(N)n1nc(CN3CCc4ncc(C(F)(F)F)cc4C3)nc21 [Ex-129, 7-methoxy-2-((3-(trifluoromethyl)-7,8-dihydro-1,6-naphthyridin-6(5H)-yl)methyl)-[1,2,4]tria.zolo[1,5-c]quinazolin-5-amine]  40.8 nM
7. COc1cccc2c1nc(N)n1nc(CN3CCn4c(C(F)(F)F)nnc4C3(C)C)nc21 [Ex-146, 2-((8,8-dimethyl-3-(trifluoromethyl)-5,6-dihydro-[1,2,4]triazolo[4,3-a]pyrazin-7(8H)-yl)methyl)-7-methoxy-[1,2,4]triazolo[1,5-c]quinazolin-5-amine]  29.9 nM
8. Nc1nc2cc(F)ccc2c2nc(CCN3Cc4ccc(F)cc4C3)nn12 [Ex-91, 8-fluoro-2-[2-(5-fluoro-1,3-dihydro-2H-isoindol-2-yl)ethyl][1,2,4]triazolo[1,5-c]quinazolin-5-amine]  26.1 nM
9. CC[C@@H](Cc1nc2c3cccc(OC)c3nc(N)n2n1)N1Cc2cccnc2C1 [Ex-113]  22.8 nM
10. Cc1cccc2c1nc(N)n1nc(CN3CCc4cccnc4C3)nc21 [Ex-201]  21.7 nM
11. CCCC(Cc1nc2c3cccc(OC)c3nc(N)n2n1)N1Cc2cccnc2C1 (stereo not drawn) [Ex-115]  21.6 nM
12. COc1cccc2c1nc(N)n1nc(C[C@H](C)N3Cc4cccnc4C3)nc21 [Ex-106]  19.5 nM
13. Nc1nc2c(Br)cccc2c2nc(CN3Cc4cccnc4C3)nn12 [Ex-195]  16.6 nM
14. COc1cccc2c1nc(N)n1nc(CC(=O)N3CCc4ccccc4CC3)nc21 [Ex-78]  13.8 nM
15. COc1cccc2c1nc(N)n1nc(CCN3Cc4ccccc4C3)nc21 [Ex-24, 2-(2-(isoindolin-2-yl)ethyl)-7-methoxy-[1,2,4]triazolo[1,5-c]quinazolin-5-amine]  11.1 nM
16. COc1cccc2c1nc(N)n1nc(CCN3CCCn4nccc43)nc21 [Ex-59, 2-(2-(6,7-dihydropyrazolo[1,5-a]pyrimidin-4(5H)-yl)ethyl)-7-methoxy-[1,2,4]triazolo[1,5-c]quinazolin-5-amine]  9.6 nM
17. Nc1nc2c(Br)cccc2c2nc(CN3CCc4cccnc4C3)nn12 [Ex-194]  8.8 nM
18. COc1cccc2c1nc(N)n1nc(CCN3CCCc4[nH]nc(C5CC5)c43)nc21 [Ex-52, 2-(2-(3-cyc1opropyl-6,7-dihydro-1H-pyrazolo[4,3-b]pyridin-4(5H)-yl)ethyl)-7-methoxy[1,2,4]triazolo[1,5-c]quinazolin-5-amine]  8.8 nM
19. COc1cccc2c1nc(N)n1nc(CCN3CCCc4c3c(C(F)(F)F)nn4C)nc21 [Ex-43, 7-methoxy-2-(2-(1-methyl-3-(trifluoromethyl)-6,7-dihydro-1H-pyrazolo[4,3-b]pyridin-4(5H)-yl)ethyl)-[1,2,4]triazolo[1,5-c]quinazolin-5-amine]  8.4 nM
20. COc1cccc2c1nc(N)n1nc(CCN3CCc4[nH]ncc4C3)nc21 [Ex-36, 2-(2-(6,7-dihydro-1H-pyrazolo[4,3-c]pyridin-5(4H)-yl)ethyl)-7-methoxy-[1,2,4]triazolo[1,5-c]quinazolin-5-amine]  6.7 nM
21. CCc1nnc2n1CCN(CCc1nc3c4cccc(OC)c4nc(N)n3n1)C2 [Ex-22, 2-(2-(3-ethyl-5,6-dihydro-[1,2,4]triazolo[4,3-a]pyrazin-7(8H)-yl)ethyl)-7-methoxy-[1,2,4]triazolo[1,5-c]quinazolin-5-amine]  6.7 nM
22. COc1cccc2c1nc(N)n1nc(CN3CCCc4cnccc43)nc21 [Ex-134, 2-((3,4-dihydro-1,6-naphthyridin-1(2H)-yl)methyl)-7-methoxy-[1,2,4]triazolo[1,5-c]quinazolin-5-amine]  6.7 nM
23. Nc1nc2c(F)cccc2c2nc(CCN3CCCc4ccccc43)nn12 [Ex-84]  6.3 nM
24. COc1cccc2c1nc(N)n1nc(CCCN3Cc4ccc(C(F)(F)F)cc4C3)nc21 [Ex-230, 7-methoxy-2-(3-(5-(trifluoromethyl)isoindolin-2-yl)propyl)-[1,2,4]triazolo[1,5-c]quinazolin-5-amine]  5.7 nM
25. COc1cccc2c1nc(N)n1nc(CCN3CCc4ncncc4C3)nc21 [Ex-54, 2-(2-(7,8-dihydropyrido[4,3-d]pyrimidin-6(5H)-yl)ethyl)-7-methoxy-[1,2,4]triazolo[1,5-c]quinazolin-5-amine]  4 nM
26. COc1cccc2c1nc(N)n1nc(CN3CCc4ccc(-c5cnc(N)nc5C(F)(F)F)cc4C3)nc21 [Ex-186, 2-((7-(2-amino-4-(trifluoromethyl)pyrimidin-5-yl)-3,4-dihydroisoquinolin-2(1H)-yl)methyl)-7-methoxy-[1,2,4]triazolo[1,5-c]-quinazolin-5-amine]  3.9 nM
27. COc1cccc2c1nc(N)n1nc(CCN3CCc4c(N5CCC(F)(F)C5)ccnc4C3)nc21 [Ex-76]  3.7 nM
28. COc1cccc2c1nc(N)n1nc(CCN3CCn4c(Br)nnc4C3)nc21 [Ex-3, 2-(2-(3-bromo-5,6-dihydro-[1,2,4]triazolo[4,3-a]pyrazin-7(8H)-yl)ethyl)-7-methoxy-[1,2,4]triazolo[1,5-c]quinazolin-5-amine]  3.4 nM
29. COc1cccc2c1nc(N)n1nc(C[C@@H](C)N3CCc4nc(C)oc4C3)nc21 [Ex-211, (R)-7-methoxy-2-(2-(2-methyl-6,7-dihydrooxazolo[5,4-c]pyridin-5(4H)-yl)propyl)-[1,2,4]triazolo[1,5-c]quinazolin-5-amine]  3 nM
30. COc1cccc2c1nc(N)n1nc(CCN3Cc4ccc(N5CCN(c6ccc(F)cc6)CC5)nc4C3)nc21 [Ex-71]  2.9 nM
31. COc1cccc2c1nc(N)n1nc(CCN3Cc4cn[nH]c4C3)nc21 [Ex-51, 7-methoxy-2-(2-(pyrrolo[3,4-c]pyrazol-5(1H,4H,6H)--yl)ethyl)-[1,2,4]triazolo[1,5-c]quinazolin-5-amine]  2.9 nM
32. COc1cccc2c1nc(N)n1nc(CN3CCCCc4ccc(-c5ccccn5)nc43)nc21 [Ex-162, 7-methoxy-2-((2-(pyridin-2-yl)-7,8-dihydro-5H-pyrido[2,3-b]azepin-9(6H)-yl)methyl)-[1,2,4]triazolo[1,5-c]quinazolin-5-amine]  2.7 nM
33. COc1cccc2c1nc(N)n1nc(CCN3CCc4oncc4C3)nc21 [Ex-35, 2-(2-(6,7-dihydroisoxazolo[4,5-c]pyridin-5(4H)-yl)ethyl)-7-methoxy-[1,2,4]triazolo[1,5-c]quinazolin-5-amine]  2.3 nM
34. COc1cccc2c1nc(N)n1nc(CCN3CCc4nc(C(F)(F)F)[nH]c4C3)nc21 [Ex-16, 7-methoxy-2-(2-(2-(trifluoromethyl)-6,7-dihydro-3H-imidazo[4,5-c]pyridin-5(4H)-yl)ethyl)-[1,2,4]triazolo[1,5-c]quinazolin-5-amine]  2.3 nM
35. COc1cccc2c1nc(N)n1nc(CCN3CCc4oc(C)nc4C3)nc21 [Ex-27, 7-methoxy-2-(2-(2-methyl-6,7-dihydrooxazolo[4,5-c]pyridin-5(4H)-yl)ethyl)-[1,2,4]triazolo[1,5-c]quinazolin-5-amine]  1.6 nM
36. COc1cccc2c1nc(N)n1nc(CCN3Cc4nc(C)sc4C3)nc21 [Ex-14, 7-methoxy-2-(2-(2-methyl-4H-pyrrolo[3,4-d]thiazol-5(6H)-yl)ethyl)-[1,2,4]triazolo[1,5-c]quinazolin-5-amine]  1.5 nM
